According to ChEMBL document CHEMBL3507680, “University of Dundee, Gates Library screen for HepG2 cell viability”:

assay: Human HepG2 cell viability assay in 384 well format; assay type: toxicity, cell-based; parameters: dose 125 nL, time 70.5 hour; concentration not given beside the values; details: HepG2 cells, read-out: Inhibition

| SMILES | cytotoxicity at 70.5 h |
| --- | --- |
| CC(C(=O)NCc1ccc2c(c1)OCCO2)n1cncn1 (configuration not stated) | 31.8% |
| Cc1noc(CN(C)C(=O)c2n[nH]c(N)c2-c2ccccc2)n1 | 2.44% |
| CCC(C)NC(=O)CCNC(=O)Nc1ccc(-n2cncn2)c(F)c1 (configuration not stated) | -10.1% |
| Cc1nc(CN(C)C2CCN(Cc3sc(C)nc3C)C2)no1 (configuration not stated) | -7.02% |
| CN(C)CCN1CCC(NC2CSCCc3ccccc32)CC1 (configuration not stated) | -7.29% |
| COc1ccc(C(C(=O)O)N(C)CCN2CCOCC2)c(C)c1 (configuration not stated) | -11.3% |
| COCCN1CC(O)CN(C(=O)c2ccc(SC)cc2)CC1=O (configuration not stated) | -4.29% |
| Cc1ccc(NCCCNC(=O)C2CCCN(Cc3ccco3)C2)nc1 (configuration not stated) | 7.19% |
| Cc1ccccc1N1CCN(c2cc(N(C)C)ncn2)C(C)C1 (configuration not stated) | -9.42% |
| COc1ccc(-c2ccc(C(=O)N3CCOCC3CC(=O)O)o2)cc1 (configuration not stated) | -3.78% |
| O=C1CCCN1CCc1noc(-c2ccsc2)n1 | -7.91% |
| Cc1cc(CN2CCN(C(=O)C3(C#N)CCCCC3)CC2)on1 | -4.13% |
| O=C(Cn1cccc2cc(-c3ccc(F)cc3)nc1-2)N1CCC(O)CC1 | 3.41% |
| O=C(Nc1cc(Cl)ccn1)c1nc(N2CCCC2)ncc1Cl | -2.78% |
| CC(Cn1cncn1)NCc1n[nH]c2c1CCCCC2 (configuration not stated) | -10.2% |
| Cn1cc(NC(=O)N2CCC(Cc3ccccc3)CC2)ccc1=O | -2.61% |
| CCc1nccn1CC(=O)N1C[C@H]2CC[C@@H]1CN(C(=O)N(C)C)C2 | -3.56% |
| Cn1cc(CN2CCC[C@]3(C[C@H](Oc4ncccc4F)CO3)C2)cn1 | -5.41% |
| Cn1nc(Cn2cccn2)c2c1CN(C1CCOC1)C2 (configuration not stated) | -6.25% |
| O=C1CCCc2cc(-c3csc(CCN4CCOC4=O)n3)ccc2N1 | -0.559% |
| Cc1nc(CN2CCOCC3(CCN(c4ncccn4)CC3)C2)cs1 | -97.5% |
| COc1ccnc(N2CCN(C(=O)c3csc(C4CC4)n3)CC2)n1 | -6.71% |
| CCn1c(C)cc(C(=O)N2CCC(Nc3cccnn3)CC2)c1C | -108% |

| SMILES | cytotoxicity at 70.5 h |
| --- | --- |
| CCOc1ncccc1NC(=O)c1sccc1C | -7.66% |
| CN(CC(N)=O)C(=O)c1cc(Cl)c(Cl)n1C | -5.05% |
| Cc1cc(CN2CCN(C(=O)NC(C)Cn3cccn3)CC2)no1 (configuration not stated) | -9.58% |
| CNC(=O)[C@H]1C[C@@H]2CCN(CCc3ccccc3)C[C@@H]2O1 | -4.11% |
| O=C(c1cccs1)N1CCc2c(nc(N3CCCC3)[nH]c2=O)C1 | -0.974% |
| CCS(=O)(=O)N1CCN(C(=O)c2ccc(Cn3cc(Br)cn3)cc2)CC1 | -6.35% |
| CC1(C(=O)NC2CCCC2)CCCN(c2ncccn2)C1 (configuration not stated) | 6.47% |
| CCN(CC)S(=O)(=O)CC(=O)N1CCc2ccc(C)cc21 | -7.29% |
| Cc1cc(CC(=O)NCC(O)COc2ccc(F)c(F)c2)n[nH]1 (configuration not stated) | 17.8% |
| Cn1nnc2c1CCN(CC1CC1)C2COCC1CC1 (configuration not stated) | -12.8% |
| COCc1nc(C(=O)N2CCCC(n3ccnc3C)C2)cs1 (configuration not stated) | -18.6% |
| CN(C)c1nccc(N(C)Cc2ncnn2C)n1 | -3.04% |
| CN(C)C[C@H]1CC[C@@H](Cc2ccc3c(cnn3C)c2)O1 | -11.9% |
| O=C(Cn1cccnc1=O)NCCc1ccc2c(c1)OCCO2 | 5.28% |
| CCOCC(=O)N1CCC(Oc2ccc(C(F)(F)F)cn2)CC1 | -4.36% |
| Cc1nc(-c2cnn(C)c2)nc2c1CN(C(=O)c1ccc[nH]1)CC2 | -6.12% |
| CCc1ncc(C(=O)N2CCCN(C3CCCCC3)CC2)cn1 | 10.7% |
| CS(=O)(=O)NCC(=O)N[C@H]1CN(CC2CC2)C[C@@H]1c1ccccc1 | -9.72% |
| CN1CCN(C)C(CNC(=O)N(C)Cc2ccc(Cl)c(F)c2)C1 (configuration not stated) | -11.2% |
| CC1c2ncc(COCC3CCOCC3)n2CCN1S(C)(=O)=O (configuration not stated) | -1.95% |
| Cc1cnc(NC(=O)c2csc(NC3CCCC3)n2)s1 | 43.8% |
| Cc1ccccc1CC(C)NC(=O)Nc1cnn(CC(N)=O)c1 (configuration not stated) | -0.765% |
| CCc1ccc(CCC(=O)N2CCOCC2c2ncon2)cc1 (configuration not stated) | -9.85% |

| SMILES | cytotoxicity at 70.5 h |
| --- | --- |
| O=C(NC[C@H]1C[C@@H]2CCN1C[C@@H]2CN1CCOCC1)Nc1ccccc1 | -2.16% |
| O=C1CC[C@H]2CN(c3ncc(F)cn3)CC[C@H]2N1CCc1ccccn1 | -5.32% |
| Cc1ccc(CN2CCn3cc(CN(C)Cc4ccco4)nc3C2)o1 | 0.0869% |
| COC(=O)CN1CC2(CCNCC2)COc2ccccc2S1(=O)=O | 6.67% |
| CSc1nc(N)c2c(n1)N=C1COC(O)=C1C2c1cccc(O)c1 (configuration not stated) | 0.964% |
| Cc1cc(C2CCN(C(=O)c3cnn(C)c3)CC2)ccn1 | -5.33% |
| CN(C)[C@@H]1CN(C(=O)COc2cccc(F)c2)C[C@H]1O | -9.79% |
| CCNC(=O)[C@@H]1CCCN1[C@@H](C(=O)NC)c1ccccc1OC | -8.29% |
| CC(C)N1CC(c2ncc(-c3ccc4c(c3)OCCO4)[nH]2)CC1=O (configuration not stated) | -5.64% |
| COc1ccccc1C(=O)Nc1c(F)c(C(=O)NCCC(C)C)nn1C | 25.3% |
| Cc1ccc2snc(C(=O)N3CCN(C(=O)NCCC(C)C)CC3)c2c1 | -6.08% |
| CC(C)c1noc(C(C)N2CCN(Cc3cccc(C#N)c3)CC2)n1 (configuration not stated) | -11% |
| Cc1ccc(CN2CCN(Cc3ccc4nonc4c3)CC2=O)cc1 | 1.65% |
| CCC(C)(C)NC(=O)c1ccc(NC(=O)NCc2cc(C)on2)cc1 | -6.36% |
| CC1CN(c2ccc(C#N)cn2)CCN1c1ccc2nncn2n1 (configuration not stated) | -4.47% |
| O=C1NCC[C@]12CN(Cc1cccnc1)C[C@H]2c1ccccc1 | -3.58% |
| CCc1ncnc2c1CCN(Cc1ccc3c(c1)OCO3)CC2 | 4.52% |
| O=C(NCc1cccc(Cl)c1)C1=NOC2(CCNC2)C1 (configuration not stated) | -6.34% |
| CC(=O)N(Cc1ncc(C(C)C)o1)C1CCN(Cc2ncc[nH]2)C1 (configuration not stated) | 0.135% |
| COc1cc(CNCc2ccco2)ccc1OCCO | -5.33% |
| CC(C)CCN1C(=O)C2(NC(=O)c3ccccc3O2)c2ccccc21 (configuration not stated) | -15.1% |
| Cc1csc([C@@H]2C[C@@H]3CCN(Cc4cc(C)on4)C[C@H]3O2)n1 | -6.2% |
| COCC(=O)Nc1ccccc1Sc1c(C)n[nH]c1C | 25.1% |

| SMILES | cytotoxicity at 70.5 h |
| --- | --- |
| CCCn1nc2c(cc1=O)CN(Cc1c(C)noc1C)CC2 | -6.66% |
| COc1ncccc1CNc1snc(Cl)c1C#N | -103% |
| O=C(Nc1cnn(C2CCOCC2)c1)c1ccc2c(c1)OCO2 | -16% |
| O=C(c1ccoc1)N1CC[C@@H]2O[C@H](COCc3ccccn3)CC[C@@H]21 | -11.6% |
| CCCNC(=O)C(C)n1nc(-c2ccc(C)o2)cc(N)c1=O (configuration not stated) | -1.77% |
| Cc1ccc(N2CCCN(C(=O)c3c(C)oc(C)c3C)CC2)nn1 | -4.32% |
| Cc1nc2c(c(N3CCN(c4ncccc4C(N)=O)CC3)n1)CCNC2 | -3.51% |
| CNC(=O)c1ccc2c(c1)C1(CCN(CC3CC3)CC1)C(=O)N2 | 1.88% |
| Cc1cnn(CC2CN(Cc3nnc(-c4occc4C)o3)CCO2)c1 (configuration not stated) | -18.4% |
| Cc1cnn(C2CCCN(C(=O)Cc3ccc(C#N)cc3)C2)c1 (configuration not stated) | -2.96% |
| CCn1cc(CN2CCCN(C(=O)c3ccn(C)c(=O)c3)CC2)cn1 | 20.6% |
| O=C(CCCn1cncn1)NC1(c2ccc(Cl)cc2)CCC1 | -1.83% |
| O=C(CCc1cc(O)no1)N1CCCC(OCc2cccnc2)C1 (configuration not stated) | -10.1% |
| Cc1cccc(NS(=O)(=O)c2cc3c(c(C(=O)O)c2)OCCO3)c1 | -7.67% |
| Fc1ccc(NCc2ccncc2)c(OC(F)F)c1 | -5.76% |
| Cc1nc(C2(O)CCCNCC2)sc1CCOc1ccccc1 (configuration not stated) | -9.24% |
| Cn1cc(Cl)cc1C(=O)N1CCC2(CCCN(CC3CC3)C2=O)C1 (configuration not stated) | 24.1% |
| Cc1cc(N2CCN(c3ccc(=O)[nH]n3)CC2)nc(-c2ccncc2)n1 | -5.53% |
| Cn1cnc2c1CCN(Cc1csc(-c3ccsc3)n1)C2 | 20.4% |
| Cc1oc(-c2ccc(Cl)cc2)nc1C(=O)NC1=NCCS1 | 11.2% |
| COc1ccccc1OC1(C(=O)O)CCN(c2ncccc2F)CC1 | -7.34% |
| Cc1cccc(-n2c(C)cc(=O)[nH]c2=O)c1C | -4.81% |
| CCc1nc(CN(C)C(=O)c2ccc(OCCCOC)nc2)cs1 | -7.45% |

| SMILES | cytotoxicity at 70.5 h |
| --- | --- |
| O=C1CC(c2ncc(-c3ccc4c(c3)OCCO4)[nH]2)CN1C1CCCC1 (configuration not stated) | -4.48% |
| O=C(c1cc(Cl)c[nH]c1=O)N1C[C@@H]2CC[C@H](C1)N(Cc1ccccc1)C2 | 12.7% |
| O=C(Cc1n[nH]c2ccccc12)N1CCCCC1Cn1cccn1 (configuration not stated) | 2.97% |
| COc1cccc(N2CCN(C(=O)[C@H](O)C3CCCCC3)CC2=O)c1 | -8.15% |
| O=C1OCCN1Cc1nc(C2(c3ccc(F)cc3)CCOC2)no1 (configuration not stated) | -6.4% |
| O=C(O)c1cnc(N2CC[C@H](N3CCOCC3)[C@H](CCCO)C2)c(Cl)c1 | -7.02% |
| O=C(c1ccco1)N1CCC2(CCC(=O)N2Cc2ccccc2)CC1 | -11.1% |
| CCn1cc(S(=O)(=O)NC2CCCC2)cn1 | -11.8% |
| CCn1cc(-c2cc(-c3ccn(C)c3)nc(N)c2C#N)cc1C#N | 5.48% |
| Cc1cc(C(=O)O)cc(S(=O)(=O)Nc2ccc3c(c2)OCCCO3)c1C | -5.74% |
| CN1CCC(CNC(=O)CCSc2ccc3c(c2)OCCO3)C1 (configuration not stated) | -2.01% |
| CSc1ncccc1C(=O)N1C[C@H]2CC[C@@H]1CN(C(C)=O)C2 | -6.7% |
| Cc1ncsc1-c1nnc(C2CCN(Cc3cccc(Cl)c3)CC2)o1 | -1.29% |
| Cc1ccc(NC2CCN(C(=O)c3c(C)noc3C)CC2)nn1 | -2.81% |
| CC(C)OCCC1CCCCN1S(=O)(=O)c1cnn(C)c1 (configuration not stated) | -4.85% |
| N#Cc1cccc(S(=O)(=O)N2CCCCC2C(N)=O)c1 (configuration not stated) | -3.12% |
| O=c1c(S(=O)(=O)N2CCCC2)cccn1Cc1ccccc1Cl | -6.09% |
| Cc1c[nH]c(C2COCCN2S(=O)(=O)c2cn[nH]c2)n1 (configuration not stated) | -12.8% |
| Cc1cc(C(F)(F)F)cc(=O)n1CCn1cc(Cl)cn1 | -11.3% |
| O=C(c1cccc(O)n1)N1CCC(O)(CN2CCC(F)(F)CC2)C1 (configuration not stated) | -8.18% |
